Experimental findings from ChEMBL document CHEMBL5465560, “Selectivity Literature for EUbOPEN Chemogenomic Library” (2024) are described below.

The target in test [1] is T1, Tyrosine-protein kinase Mer (Homo sapiens) (UniProt Q12866).
T1 sequence (whole entry): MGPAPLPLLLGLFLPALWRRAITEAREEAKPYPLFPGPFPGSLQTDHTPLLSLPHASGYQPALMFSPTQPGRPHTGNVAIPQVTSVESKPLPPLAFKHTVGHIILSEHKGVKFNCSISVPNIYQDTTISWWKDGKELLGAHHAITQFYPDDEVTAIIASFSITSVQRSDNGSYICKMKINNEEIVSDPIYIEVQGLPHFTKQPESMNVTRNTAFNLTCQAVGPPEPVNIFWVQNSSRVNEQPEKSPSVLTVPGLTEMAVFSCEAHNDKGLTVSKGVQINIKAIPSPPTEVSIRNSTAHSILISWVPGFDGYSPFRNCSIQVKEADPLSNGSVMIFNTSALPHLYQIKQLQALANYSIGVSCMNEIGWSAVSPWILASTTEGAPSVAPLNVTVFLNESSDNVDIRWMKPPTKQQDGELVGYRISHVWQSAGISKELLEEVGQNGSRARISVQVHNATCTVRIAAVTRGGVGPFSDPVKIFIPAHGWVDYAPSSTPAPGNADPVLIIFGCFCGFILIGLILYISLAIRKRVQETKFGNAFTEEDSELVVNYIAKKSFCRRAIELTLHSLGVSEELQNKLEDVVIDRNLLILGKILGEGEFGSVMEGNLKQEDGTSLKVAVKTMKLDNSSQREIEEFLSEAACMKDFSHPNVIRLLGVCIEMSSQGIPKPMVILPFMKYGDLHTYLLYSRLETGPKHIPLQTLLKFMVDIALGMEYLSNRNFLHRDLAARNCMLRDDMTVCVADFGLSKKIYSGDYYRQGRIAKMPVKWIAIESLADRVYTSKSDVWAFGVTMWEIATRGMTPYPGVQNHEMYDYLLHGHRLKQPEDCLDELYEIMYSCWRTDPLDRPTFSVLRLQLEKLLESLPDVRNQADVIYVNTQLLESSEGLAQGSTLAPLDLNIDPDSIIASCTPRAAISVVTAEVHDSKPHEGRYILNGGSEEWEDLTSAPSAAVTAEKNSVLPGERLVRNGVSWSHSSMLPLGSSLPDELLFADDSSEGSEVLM
The test can be described thus: Selectivity interaction (Ambit KINOMEscan and KiNATiv profiling in Jurkat cells) EUB0000090b MERTK. It is filed as cell-based. Particulars: at 1 µM.

For test [2], the target named is Vascular endothelial growth factor receptor 1 (Homo sapiens) (UniProt P17948). In words: Selectivity interaction (Ambit KINOMEscan and KiNATiv profiling in Jurkat cells) EUB0000090b FLT1. Particulars: at 1 µM. The format is cell-based.
Sequence of Vascular endothelial growth factor receptor 1 (Homo sapiens) (P17948 whole entry): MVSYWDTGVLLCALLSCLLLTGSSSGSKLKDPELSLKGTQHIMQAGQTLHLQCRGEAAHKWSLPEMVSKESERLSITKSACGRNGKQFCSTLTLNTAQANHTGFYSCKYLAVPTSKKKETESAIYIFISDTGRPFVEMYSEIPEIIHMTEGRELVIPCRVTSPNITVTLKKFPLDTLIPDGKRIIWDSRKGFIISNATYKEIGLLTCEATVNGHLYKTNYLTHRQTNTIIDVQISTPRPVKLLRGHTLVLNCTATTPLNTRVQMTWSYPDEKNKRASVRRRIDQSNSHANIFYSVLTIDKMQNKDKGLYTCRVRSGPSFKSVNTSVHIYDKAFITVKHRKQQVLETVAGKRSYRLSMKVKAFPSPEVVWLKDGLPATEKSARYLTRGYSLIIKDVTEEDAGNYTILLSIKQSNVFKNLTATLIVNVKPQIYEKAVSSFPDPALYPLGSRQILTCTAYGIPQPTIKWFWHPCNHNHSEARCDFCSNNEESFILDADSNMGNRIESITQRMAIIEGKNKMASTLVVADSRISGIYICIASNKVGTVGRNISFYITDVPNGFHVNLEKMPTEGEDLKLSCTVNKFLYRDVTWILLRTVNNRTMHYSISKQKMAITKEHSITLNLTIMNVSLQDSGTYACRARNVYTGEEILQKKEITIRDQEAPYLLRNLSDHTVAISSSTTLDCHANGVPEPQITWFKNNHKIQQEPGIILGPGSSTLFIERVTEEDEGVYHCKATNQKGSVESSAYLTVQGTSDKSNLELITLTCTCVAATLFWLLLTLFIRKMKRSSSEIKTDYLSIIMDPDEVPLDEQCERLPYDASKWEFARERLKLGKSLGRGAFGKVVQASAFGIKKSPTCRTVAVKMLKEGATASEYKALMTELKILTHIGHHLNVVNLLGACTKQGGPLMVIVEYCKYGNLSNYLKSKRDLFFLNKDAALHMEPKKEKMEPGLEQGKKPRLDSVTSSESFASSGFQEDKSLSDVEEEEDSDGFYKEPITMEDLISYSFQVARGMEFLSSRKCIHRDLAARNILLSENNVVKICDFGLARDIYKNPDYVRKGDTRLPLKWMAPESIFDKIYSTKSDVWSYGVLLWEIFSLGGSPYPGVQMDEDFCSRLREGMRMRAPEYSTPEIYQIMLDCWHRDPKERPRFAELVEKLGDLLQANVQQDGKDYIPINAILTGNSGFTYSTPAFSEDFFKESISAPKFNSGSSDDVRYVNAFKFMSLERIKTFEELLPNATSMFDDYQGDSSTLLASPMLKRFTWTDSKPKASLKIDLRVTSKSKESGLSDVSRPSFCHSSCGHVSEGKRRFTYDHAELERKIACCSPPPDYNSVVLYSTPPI
The target in test [3] is Serine/threonine-protein kinase WNK2 (Homo sapiens) (UniProt Q9Y3S1). In words: Selectivity interaction (KinomeScan (DiscoverX)) EUB0001079a WNK2. Particulars: at 1 µM.
For test [4], the target named is T2, Serine/threonine-protein kinase Sgk1 (Homo sapiens) (UniProt O00141).
T2 sequence (whole entry): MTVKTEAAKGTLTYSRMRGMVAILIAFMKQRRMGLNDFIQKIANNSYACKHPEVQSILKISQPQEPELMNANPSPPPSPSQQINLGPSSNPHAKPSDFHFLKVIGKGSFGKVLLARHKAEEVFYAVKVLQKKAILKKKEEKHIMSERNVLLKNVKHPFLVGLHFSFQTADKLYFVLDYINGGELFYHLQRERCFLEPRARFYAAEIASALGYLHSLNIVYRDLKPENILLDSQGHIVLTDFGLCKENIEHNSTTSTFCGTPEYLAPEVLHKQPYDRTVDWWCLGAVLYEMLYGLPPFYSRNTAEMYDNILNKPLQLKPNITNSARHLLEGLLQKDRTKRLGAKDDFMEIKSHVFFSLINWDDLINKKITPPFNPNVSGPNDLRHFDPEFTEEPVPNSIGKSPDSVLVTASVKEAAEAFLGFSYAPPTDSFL
The test can be described thus: Selectivity interaction (KinomeScan (DiscoverX)) EUB0001619a SGK1. The settings on record: at 1 µM.

Test [5] has as its target Receptor tyrosine-protein kinase erbB-2 (Homo sapiens, UniProt P04626). The settings on record: at 10 µM.
In test [6] the target is T3, Serine/threonine-protein kinase DCLK3 (Homo sapiens) (UniProt Q9C098).
T3 sequence (whole entry): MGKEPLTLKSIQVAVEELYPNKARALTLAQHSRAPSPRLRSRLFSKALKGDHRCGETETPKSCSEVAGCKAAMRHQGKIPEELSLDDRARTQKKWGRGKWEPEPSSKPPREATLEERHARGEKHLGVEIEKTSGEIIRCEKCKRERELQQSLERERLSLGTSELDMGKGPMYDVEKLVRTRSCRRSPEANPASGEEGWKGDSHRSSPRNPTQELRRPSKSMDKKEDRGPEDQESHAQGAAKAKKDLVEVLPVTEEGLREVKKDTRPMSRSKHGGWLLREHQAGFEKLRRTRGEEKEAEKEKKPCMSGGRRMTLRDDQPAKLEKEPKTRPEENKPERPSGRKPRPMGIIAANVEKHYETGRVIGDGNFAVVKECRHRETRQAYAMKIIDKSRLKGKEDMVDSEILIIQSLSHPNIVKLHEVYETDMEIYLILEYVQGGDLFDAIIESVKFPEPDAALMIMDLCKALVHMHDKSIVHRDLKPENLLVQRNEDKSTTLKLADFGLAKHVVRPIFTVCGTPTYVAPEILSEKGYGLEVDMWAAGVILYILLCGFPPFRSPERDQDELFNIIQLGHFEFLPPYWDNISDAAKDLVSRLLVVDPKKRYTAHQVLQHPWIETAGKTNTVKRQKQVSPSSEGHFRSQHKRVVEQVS
The test can be described thus: Selectivity interaction (KinomeScan (DiscoverX)) EUB0001049a DCLK3. Particulars: at 1 µM.

In test [7] the target is Serine/threonine-protein kinase Nek4 (Homo sapiens) (UniProt P51957). The test can be described thus: Selectivity interaction (ProQinase) EUB0000171b NEK4.
Sequence of Serine/threonine-protein kinase Nek4 (Homo sapiens) (P51957 whole entry, looked up): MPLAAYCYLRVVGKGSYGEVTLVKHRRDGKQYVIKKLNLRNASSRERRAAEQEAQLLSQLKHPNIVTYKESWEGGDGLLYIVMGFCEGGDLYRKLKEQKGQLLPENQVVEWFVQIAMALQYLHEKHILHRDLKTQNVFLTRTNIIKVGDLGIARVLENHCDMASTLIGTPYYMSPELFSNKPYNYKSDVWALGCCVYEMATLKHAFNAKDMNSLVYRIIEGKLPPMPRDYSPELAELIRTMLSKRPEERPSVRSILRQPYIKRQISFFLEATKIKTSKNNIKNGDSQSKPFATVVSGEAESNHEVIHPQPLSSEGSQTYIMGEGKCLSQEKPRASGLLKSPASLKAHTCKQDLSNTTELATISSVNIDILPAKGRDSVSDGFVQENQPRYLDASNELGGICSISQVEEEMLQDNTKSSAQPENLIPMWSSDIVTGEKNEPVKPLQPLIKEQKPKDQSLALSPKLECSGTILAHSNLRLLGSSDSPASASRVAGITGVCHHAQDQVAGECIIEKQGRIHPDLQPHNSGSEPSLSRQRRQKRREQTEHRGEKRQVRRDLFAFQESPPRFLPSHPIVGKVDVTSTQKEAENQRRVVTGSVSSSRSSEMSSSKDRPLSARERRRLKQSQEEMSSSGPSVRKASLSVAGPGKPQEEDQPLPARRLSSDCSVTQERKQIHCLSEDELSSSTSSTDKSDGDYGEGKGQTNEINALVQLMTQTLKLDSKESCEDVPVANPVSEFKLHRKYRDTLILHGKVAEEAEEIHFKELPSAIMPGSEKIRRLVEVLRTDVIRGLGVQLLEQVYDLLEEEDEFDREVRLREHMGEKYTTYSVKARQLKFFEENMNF
Test [8] has as its target Serine/threonine-protein kinase PAK 3 (Homo sapiens) (UniProt O75914). In words: Selectivity interaction (KinomeScan (DiscoverX)) EUB0000092b PAK3. Particulars: at 10 µM.
The target in test [9] is MAP kinase-activated protein kinase 2 (Homo sapiens, UniProt P49137). In words: Selectivity interaction (KinomeScan (DiscoverX)) EUB0000092b MAPKAPK2. The settings on record: at 10 µM.
Sequence of MAP kinase-activated protein kinase 2 (P49137 whole entry, looked up): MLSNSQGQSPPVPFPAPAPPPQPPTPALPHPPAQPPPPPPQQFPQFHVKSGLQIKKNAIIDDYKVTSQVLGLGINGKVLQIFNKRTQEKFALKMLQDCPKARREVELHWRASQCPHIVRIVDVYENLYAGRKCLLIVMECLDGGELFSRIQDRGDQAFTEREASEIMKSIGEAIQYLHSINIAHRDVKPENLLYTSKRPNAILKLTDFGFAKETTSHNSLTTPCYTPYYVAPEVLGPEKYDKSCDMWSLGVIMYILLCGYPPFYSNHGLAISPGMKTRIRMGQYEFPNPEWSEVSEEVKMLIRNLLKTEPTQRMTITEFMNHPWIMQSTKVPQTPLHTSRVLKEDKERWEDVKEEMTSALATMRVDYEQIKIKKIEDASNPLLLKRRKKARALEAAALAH
For test [10], the target named is Dual specificity tyrosine-phosphorylation-regulated kinase 1B (Homo sapiens, UniProt Q9Y463). In words: Selectivity interaction (KinomeScan (DiscoverX)) EUB0001550a DYRK1B. Particulars: at 1 µM.
Sequence of Dual specificity tyrosine-phosphorylation-regulated kinase 1B (Q9Y463 whole entry, looked up): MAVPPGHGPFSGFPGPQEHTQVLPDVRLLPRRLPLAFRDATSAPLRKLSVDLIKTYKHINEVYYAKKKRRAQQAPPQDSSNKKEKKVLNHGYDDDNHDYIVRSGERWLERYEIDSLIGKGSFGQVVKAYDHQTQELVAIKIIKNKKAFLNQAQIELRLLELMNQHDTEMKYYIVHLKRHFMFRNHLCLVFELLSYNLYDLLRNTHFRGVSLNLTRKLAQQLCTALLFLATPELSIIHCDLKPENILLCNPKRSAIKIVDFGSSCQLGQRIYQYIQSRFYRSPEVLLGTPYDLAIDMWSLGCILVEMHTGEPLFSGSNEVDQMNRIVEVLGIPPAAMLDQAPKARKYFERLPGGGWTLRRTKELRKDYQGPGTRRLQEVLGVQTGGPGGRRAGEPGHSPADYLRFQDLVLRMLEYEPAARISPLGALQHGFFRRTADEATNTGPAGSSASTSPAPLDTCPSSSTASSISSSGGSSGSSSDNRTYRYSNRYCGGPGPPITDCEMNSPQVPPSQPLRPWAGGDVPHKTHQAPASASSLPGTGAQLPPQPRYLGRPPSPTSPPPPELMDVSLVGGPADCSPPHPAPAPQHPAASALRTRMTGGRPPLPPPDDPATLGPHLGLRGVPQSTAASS

Sequence of Serine/threonine-protein kinase PAK 3 (Homo sapiens) (O75914 whole entry, looked up): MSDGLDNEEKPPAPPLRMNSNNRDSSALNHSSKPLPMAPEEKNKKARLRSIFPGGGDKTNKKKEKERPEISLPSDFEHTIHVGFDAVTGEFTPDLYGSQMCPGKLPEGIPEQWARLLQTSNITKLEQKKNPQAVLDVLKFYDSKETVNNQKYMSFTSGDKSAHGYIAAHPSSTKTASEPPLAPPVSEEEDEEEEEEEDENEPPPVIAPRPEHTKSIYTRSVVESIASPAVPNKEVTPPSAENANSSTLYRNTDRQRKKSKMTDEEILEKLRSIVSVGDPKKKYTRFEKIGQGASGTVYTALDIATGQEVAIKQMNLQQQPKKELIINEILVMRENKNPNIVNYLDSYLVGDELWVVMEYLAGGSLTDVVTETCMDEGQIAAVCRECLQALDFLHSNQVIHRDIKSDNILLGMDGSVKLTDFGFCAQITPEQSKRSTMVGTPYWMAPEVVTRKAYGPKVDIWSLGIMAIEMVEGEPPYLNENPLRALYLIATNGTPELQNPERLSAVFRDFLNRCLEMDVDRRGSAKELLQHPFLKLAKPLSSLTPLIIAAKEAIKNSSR
Sequence of Receptor tyrosine-protein kinase erbB-2 (P04626 whole entry): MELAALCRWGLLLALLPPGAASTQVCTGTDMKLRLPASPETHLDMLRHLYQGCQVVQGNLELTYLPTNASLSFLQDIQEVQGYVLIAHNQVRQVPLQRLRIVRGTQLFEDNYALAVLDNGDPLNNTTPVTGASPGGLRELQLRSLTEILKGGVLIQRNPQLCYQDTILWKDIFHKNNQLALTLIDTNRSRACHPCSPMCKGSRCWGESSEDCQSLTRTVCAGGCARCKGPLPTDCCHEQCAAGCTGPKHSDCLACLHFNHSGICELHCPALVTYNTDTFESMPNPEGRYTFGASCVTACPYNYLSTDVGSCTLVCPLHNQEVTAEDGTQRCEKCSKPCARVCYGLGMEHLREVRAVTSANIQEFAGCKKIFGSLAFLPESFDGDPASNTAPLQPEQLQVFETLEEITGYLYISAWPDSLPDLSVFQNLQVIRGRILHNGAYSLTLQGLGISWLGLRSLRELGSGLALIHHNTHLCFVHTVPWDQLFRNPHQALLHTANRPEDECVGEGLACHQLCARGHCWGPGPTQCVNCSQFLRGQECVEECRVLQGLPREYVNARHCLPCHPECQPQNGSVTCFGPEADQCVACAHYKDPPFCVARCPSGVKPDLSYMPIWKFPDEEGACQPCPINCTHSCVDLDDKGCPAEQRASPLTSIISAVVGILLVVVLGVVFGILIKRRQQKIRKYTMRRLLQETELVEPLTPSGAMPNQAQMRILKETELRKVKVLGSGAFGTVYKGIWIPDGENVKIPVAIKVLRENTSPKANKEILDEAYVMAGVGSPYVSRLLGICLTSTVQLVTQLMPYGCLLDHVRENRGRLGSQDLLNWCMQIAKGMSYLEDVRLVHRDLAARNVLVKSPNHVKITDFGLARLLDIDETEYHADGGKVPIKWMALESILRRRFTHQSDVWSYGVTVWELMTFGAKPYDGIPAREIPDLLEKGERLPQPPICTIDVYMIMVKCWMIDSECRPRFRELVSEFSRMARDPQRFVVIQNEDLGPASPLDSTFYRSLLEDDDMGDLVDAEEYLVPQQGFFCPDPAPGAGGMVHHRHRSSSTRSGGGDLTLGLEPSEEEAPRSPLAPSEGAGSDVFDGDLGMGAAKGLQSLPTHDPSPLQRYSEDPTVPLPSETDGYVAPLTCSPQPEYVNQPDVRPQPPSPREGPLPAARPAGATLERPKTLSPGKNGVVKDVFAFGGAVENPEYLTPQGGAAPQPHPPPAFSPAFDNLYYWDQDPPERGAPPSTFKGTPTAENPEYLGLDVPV

With `CN(C)C/C=C/C(=O)Nc1ccc(C(=O)N2CCCC(Nc3ncc(Cl)c(-c4c[nH]c5ccccc45)n3)C2)cc1` (stereo unspecified), the % of control in [1] is 61%; in [2], 85%. On to `Nc1cnc(N2CCc3cc(S(=O)(=O)Nc4c(F)cc(Cl)cc4F)cc(N4CCCC4=O)c32)nc1` [TP-020n], for which the % of control in [3] amounted to 100%. In test [4], `N#Cc1cccc(-c2c[nH]c3ncnc(N4CCOCC4)c23)c1` came in with a % of control of 65%. For `CCN(CC)CCCCNc1ncc2cc(-c3cc(OC)cc(OC)c3)c(NC(=O)NC(C)(C)C)nc2n1`, the % of control in test [5] came out at 100%. Take `COc1cc(Nc2nc(C)cc(-c3cnn4nc(OC)ccc34)n2)cc(C(F)(F)F)c1`: the % of control in [6] turned out to be 100%.

Regarding `C=CC(=O)Nc1cccc(C(=O)Nc2ccc(Nc3cc(-c4[nH]c(SC)nc4C)ccn3)cc2)c1`, the % of control in test [7] (at 1 µM) turned out to be 79%; in test [7] (at 5 µM), 51%.

For the molecule `CCC(=O)N1CCN(c2ccc(-n3c(=O)ccc4cnc5ccc(-c6cnc7ccccc7c6)cc5c43)cc2C(F)(F)F)CC1`, the % of control in [8] and in [9] was 100% in each case. Turning to `CN(C)CC#Cc1ccc2[nH]c3c(c2c1)-c1nc(N)ncc1CCC3`, the % of control in test [10] amounted to 26%.
